Where two headings read alike, the source gives them in different places.
Assays:
[1] = system: newly transformed schistosomula (NTS); experiment: NTS viability phenotypic screening, 72 h; conditions: for IC50: Schistosoma mansoni, read-out: IC50 (NTS viability)
Experimental: (§4) For NTS and adult worms, transparent flat-bottom 96- and 24-well plates were used, respectively (Sarstedt, Switzerland). For juvenile worms, 48-well plates were used with 3–6 worms per plate and RPMI medium with 5% FCS and 1% penicillin/streptomycin. Compounds were initially tested at 20 and 10 μM in triplicate on NTS and repeated once; each well contained 30–40 NTS. Phenotypic reference points such as motility, morphology, and granularity were used to score incubated parasites’ overall viability (scores from 0 to 3). […] Identified hits from the NTS screening were tested on adult worms. […] The experiment was conducted in duplicate and repeated; standard deviations were calculated from two wells. […] For all in vitro assays, negative controls (DMSO at the highest tested concentration) were included.

[2] = system: NTS; experiment: Speed-of-action assay in NTS; assay type: cell-based, Schistosoma mansoni; conditions: for Percentage of effect: NTS; for IC50: Schistosoma mansoni, read-out: IC50 (speed of action, NTS)
Text: (§1) To better characterize a selection of our LSD1i in vitro, we assessed the onset of their action, defined as the time required for an observable antischistosomal effect. […] For detailed percentages of activity at each time point, refer to the Supporting Information (Tables S2 and S3 in Supporting Information).

[3] = molecular target: T1, human LSD1-CoREST complex (Homo sapiens, UniProt O60341); experiment: HRP-coupled LSD1 inhibition assay; assay type: biochemical; conditions: 10 min preincubation, read-out: IC50 (hLSD1 direct inhibition)
T1 construct: made in house
Experimental: Protein expression, thermal stability, and inhibition of human LSD1-CoREST were performed using established protocols. […] The reaction was initiated by adding an equal volume of the substrate solution to the enzyme–inhibitor mixture, and resorufin fluorescence (excitation at 530–570 nm and emission at 580–590 nm) was detected with a Clariostar plate reader.

[4] = system: adult worms; experiment: Adult worm viability phenotypic assay, 72 h; conditions: Schistosoma mansoni, read-out: IC50 (adult worm viability)
Experimental: The life cycle is maintained at the Swiss TPH as described previously. Cercariae were obtained from infected snails by exposing them to a strong light source for 3–4 h in pond water.
as §4

[5] = MTT cytotoxicity in MRC-5 cells; assay type: cell-based; conditions: human, MRC-5 lung diploid fibroblast cells; for viability at 72 h, 5 µM / viability at 72 h, 10 µM / viability at 72 h, 25 µM / viability at 72 h, 50 µM: read-out: percentage of viability, 72 h; for IC50 at 72 h: read-out: IC50 (cell viability)
Experimental: (§2) The MTT method was used to evaluate cell viability after 72 h of treatment.
(§3) Human commercial lung diploid fibroblasts (MRC-5), and diploid retinal epithelium cells (RPE) were obtained from the American Type Culture Collection (ATCC) and kindly provided by Dr Francesca Degrassi (CNR IBPM) and maintained in minimal essential medium or DMEM-F12 medium supplemented with fetal calf serum, antibiotics, and nonessential amino acids. Cells were grown at 37 °C, in a humidified atmosphere, with 5% CO2. For experiments, cells were seeded in 200 μL of complete in each well of a 96-well microtiter plate. After 24 h, compounds were added at 5, 10, 25, and 50 μM for 72 h in sextuplicate. MTT was added (0.5 mg/mL), incubated for 4 h at 37 °C, and dissolved in 200 μL of isopropyl alcohol. Absorbance was measured at 570 nm (ELISA reader, DASIT), and cell viability was calculated as viability=(ODoftreatedcells/ODofcontrolcells)×100

[6] = MTT cytotoxicity in RPE cells; assay type: cell-based; conditions: human, retinal pigment epithelial (RPE) cells; for viability at 72 h, 5 µM / viability at 72 h, 10 µM / viability at 72 h, 25 µM / viability at 72 h, 50 µM: read-out: percentage of viability, 72 h; for IC50 at 72 h: read-out: IC50 (cell viability)
Experimental: as §2, §3

[7] = molecular target: T1, human LSD1-CoREST complex; experiment: ThermoFAD thermal stability assay; assay type: binding; conditions: LSD1-CoREST thermal stability
Experimental: Compounds 14–22 were tested against the human LSD1-CoREST complex to determine their inhibitory activity. […] ThermoFAD assays were then performed to assess the impact of 14–22 on the thermal stability (ΔT m values, Table ) of the LSD1-CoREST complex. The most significant shifts in Tm values corresponded to the strongest binders. […] Compound 22 was not tested, considering its previous negative results.
Protein expression, thermal stability, and inhibition of human LSD1-CoREST were performed using established protocols. […] LSD1-CoREST (0.4 μM) was preincubated with the inhibitor at 25 °C for 10 min in the presence of 5% DMSO. The reaction was initiated by adding an equal volume of the substrate solution to the enzyme–inhibitor mixture, and resorufin fluorescence (excitation at 530–570 nm and emission at 580–590 nm) was detected with a Clariostar plate reader.

[8] = system: S. mansoni juvenile forms; experiment: Speed-of-action assay in juvenile forms; assay type: cell-based, Schistosoma mansoni; conditions: for IC50: Schistosoma mansoni, read-out: IC50 (speed of action, juvenile forms); for Percentage of effect: juvenile forms
Text: as §1

[9] = system: adult worms; experiment: Pairing and egg laying of adult worms; assay type: cell-based, Schistosoma mansoni; conditions: for eggs' number: 20 μM; for effect on worm pairing: adult worms
Experimental: Selected compounds 2, 15, 18, and 19 were tested on adult worms to evaluate their effects on pairing and egg laying.

CCCc1ccc(C(=O)Nc2ccc(C3CC3N)cc2)cc1.Cl (centres unmarked) [Compound 15, N-(4-(2-Aminocyclopropyl)phenyl)-4-propylbenzamide Hydrochloride]
Percentage of reduction of NTS viability, 72 h ([1]; 1 μM): 30.2 ± 1.9% | Percentage of reduction of NTS viability, 72 h ([1]; 10 μM): 87.5 ± 4.2% | Percentage of reduction of NTS viability, 72 h ([1]; 20 μM): 100 ± 0.0% | IC50 [1]: 1720 nM | Percentage of effect ([2]; 4 h, 10 μM): 21.15% | Percentage of effect ([2]; 4 h, 20 μM): 38.46% | Percentage of effect ([2]; 24 h, 10 μM): 50% | Percentage of effect ([2]; 24 h, 20 μM): 57.14% | Percentage of effect ([2]; 48 h, 10 μM): 51.02% | Percentage of effect ([2]; 48 h, 20 μM): 91.84% | Percentage of effect ([2]; 72 h, 10 μM): 71.43% | Percentage of effect ([2]; 72 h, 20 μM): 100% | IC50 ([2]; 4 h): > 20 µM | IC50 ([2]; 24 h): 10 µM | IC50 ([2]; 48 h): 9.9 µM | IC50 ([2]; 72 h): 9.3 µM | IC50 [3]: 120 ± 20 nM | IC50 [4]: > 10 µM | viability at 72 h, 5 µM [5]: 81 ± 16% | viability at 72 h, 10 µM [5]: 91 ± 20% | viability at 72 h, 25 µM [5]: 89 ± 17% | viability at 72 h, 50 µM [5]: 92 ± 20% | IC50 at 72 h [5]: > 100 µM | viability at 72 h, 5 µM [6]: 89 ± 3% | viability at 72 h, 10 µM [6]: 104 ± 12% | viability at 72 h, 25 µM [6]: 99 ± 6% | viability at 72 h, 50 µM [6]: 106 ± 17% | IC50 at 72 h [6]: > 100 µM | ΔTm [7]: +9.5 °C | IC50 ([8]; 4 h): > 20 µM | IC50 ([8]; 24 h): > 20 µM | IC50 ([8]; 48 h): > 20 µM | IC50 ([8]; 72 h): 4.3 µM | Percentage of effect ([8]; 4 h, 1 μM): 23.33% | Percentage of effect ([8]; 4 h, 10 μM): 33.33% | Percentage of effect ([8]; 4 h, 20 μM): 45.45% | Percentage of effect ([8]; 24 h, 1 μM): 24.14% | Percentage of effect ([8]; 24 h, 10 μM): 34.48% | Percentage of effect ([8]; 24 h, 20 μM): 48.08% | Percentage of effect ([8]; 48 h, 1 μM): 34.62% | Percentage of effect ([8]; 48 h, 10 μM): 42.31% | Percentage of effect ([8]; 48 h, 20 μM): 50% | Percentage of effect ([8]; 72 h, 1 μM): 40.96% | Percentage of effect ([8]; 72 h, 10 μM): 44.55% | Percentage of effect ([8]; 72 h, 20 μM): 70.83% | eggs' number ([9]; 4 h): 0 | eggs' number ([9]; 8 h): 0 | eggs' number ([9]; 24 h): 0 | eggs' number ([9]; 48 h): 0 | eggs' number ([9]; 72 h): 8 | effect on worm pairing [9]: no impact on worm pairing

CC#Cc1ccc(C(=O)Nc2ccc(C3CC3N)cc2)cc1.Cl (centres unmarked) [Compound 18, N-(4-(2-Aminocyclopropyl)phenyl)-4-(prop-1-yn-1-yl)benzamide Hydrochloride]
Percentage of reduction of NTS viability, 72 h ([1]; 1 μM): 22.6 ± 1.9% | Percentage of reduction of NTS viability, 72 h ([1]; 10 μM): 95.8 ± 4.2% | Percentage of reduction of NTS viability, 72 h ([1]; 20 μM): 100 ± 0.0% | IC50 [1]: 1760 nM | Percentage of effect ([2]; 4 h, 10 μM): 26.92% | Percentage of effect ([2]; 4 h, 20 μM): 30.77% | Percentage of effect ([2]; 24 h, 10 μM): 51.79% | Percentage of effect ([2]; 24 h, 20 μM): 75% | Percentage of effect ([2]; 48 h, 10 μM): 81.63% | Percentage of effect ([2]; 48 h, 20 μM): 87.76% | Percentage of effect ([2]; 72 h, 20 μM): 100% | IC50 ([2]; 4 h): > 20 µM | IC50 ([2]; 24 h): 6.9 µM | IC50 ([2]; 48 h): 4.4 µM | IC50 ([2]; 72 h): 2.4 µM | IC50 [3]: 130 ± 20 nM | IC50 [4]: > 10 µM | viability at 72 h, 5 µM [5]: 111 ± 10% | viability at 72 h, 10 µM [5]: 75 ± 15% | viability at 72 h, 25 µM [5]: 98 ± 14% | viability at 72 h, 50 µM [5]: 75 ± 12% | IC50 at 72 h [5]: > 100 µM | viability at 72 h, 5 µM [6]: 82 ± 21% | viability at 72 h, 10 µM [6]: 86 ± 36% | viability at 72 h, 25 µM [6]: 104 ± 20% | viability at 72 h, 50 µM [6]: 95 ± 2% | IC50 at 72 h [6]: > 100 µM | ΔTm [7]: +8 °C | IC50 ([8]; 4 h): > 20 µM | IC50 ([8]; 24 h): > 20 µM | IC50 ([8]; 48 h): > 20 µM | IC50 ([8]; 72 h): 3.8 µM | Percentage of effect ([8]; 4 h, 1 μM): 20% | Percentage of effect ([8]; 4 h, 10 μM): 20% | Percentage of effect ([8]; 4 h, 20 μM): 43.64% | Percentage of effect ([8]; 24 h, 1 μM): 24.14% | Percentage of effect ([8]; 24 h, 10 μM): 31.03% | Percentage of effect ([8]; 24 h, 20 μM): 46.15% | Percentage of effect ([8]; 48 h, 1 μM): 34.62% | Percentage of effect ([8]; 48 h, 10 μM): 42.31% | Percentage of effect ([8]; 48 h, 20 μM): 47.92% | Percentage of effect ([8]; 72 h, 1 μM): 42.81% | Percentage of effect ([8]; 72 h, 10 μM): 44.77% | Percentage of effect ([8]; 72 h, 20 μM): 70.83% | eggs' number ([9]; 4 h): 0 | eggs' number ([9]; 8 h): 0 | eggs' number ([9]; 24 h): 0 | eggs' number ([9]; 48 h): 0 | eggs' number ([9]; 72 h): 2 | effect on worm pairing [9]: no impact on worm pairing
